Assays:
Design in all cases: species or system A/J mice
7-1 mAb = conditions: free analogue 0.00035-200 μM inhibiting binding of mAb 7-1 to Oua-BGG
Experimental: (§1) Competition ELISA was used first to determine the relative affinity of each mAb for Oua and Dig. The 96-well PVC plates were coated with 50 μl of 5 μg/ml Oua-BGG in PBSA. First we determined the Ab concentration which was not in excess of immobilized antigen. Using the direct binding assay described above, the concentration of Ab at which 50% binding was achieved was ascertained. Inhibition of binding of Abs to Oua-BGG was determined by adding 25 μl Ab (concentrations as determined above) and 25 μl of free Oua (0.001-200 μM, 2-fold dilutions). Percent inhibition is the ratio (OD450 in the presence of 1% BSA−OD450 in the presence of Oua)/(OD450 in the presence of 1% BSA)×100. The relative affinity (IC50) is the Oua concentration that inhibits 50% of the binding of Ab to Oua-BGG.
(§2) Competition ELISA was used to determine the cross reactivity of the mAbs with different digitalis glycosides (Oua, Dig, gitoxin and digitoxin and their derivatives listed in Tables I and II) and with endogenous steroid hormones (cortisone, corticosterone and progesterone). In these assays binding of mAbs to Oua-BGG was determined in the presence or absence of various concentrations (0.00035-200 μM) of free digitalis glycosides and steroid hormones as described above.
(§3) Inhibition assays were performed to identify clones that produce mAbs, the binding of which to Oua-BGG could be inhibited with free Oua at μM concentrations. Abs were titrated in direct binding assays to determine the concentration equivalent to 35-50% binding to Oua-BGG. Binding of Abs to Oua-BGG was determined in the presence or absence of 0.00035-200 μM of free Oua. Ab binding was detected using HRP-goat anti-mouse Ab. […] Percentage inhibition was calculated as described in Materials and Methods.

26-10 mAb = conditions: free analogue 0.00035-200 μM inhibiting binding of mAb 26-10 to Oua-BGG
Experimental: as §1, §2, §3

1-10 mAb = conditions: free analogue 0.00035-200 μM inhibiting binding of mAb 1-10 to Oua-BGG
Experimental: as §1, §2, §3

5A12 mAb = conditions: free analogue 0.00035-200 μM inhibiting binding of mAb 5A12 to Oua-BGG
Experimental: as §1
as §2, with “above. […]” for “above.”

| SMILES | IC50 (7-1 mAb) [µM] | IC50 (26-10 mAb) [µM] | IC50 (1-10 mAb) [µM] | IC50 (5A12 mAb) [µM] |
| --- | --- | --- | --- | --- |
| CC(=O)O[C@H]1CC[C@@]2(C)[C@H](CC[C@@H]3[C@@H]2C[C@@H](OC(C)=O)[C@]2(C)[C@@H](C4=CC(=O)OC4)CC[C@]32O)C1 [Digoxigenin-3,12-diacetate] | > 100 | 6 | > 100 | > 100 |
| C[C@]12CCC(=O)C=C1CC[C@@H]1[C@@H]2C(=O)C[C@@]2(C)[C@H]1CC[C@]2(O)C(=O)CO [Cortisone] | > 100 | 100 | > 100 | > 100 |
| C[C@H]1O[C@@H](O[C@H]2CC[C@]3(C=O)[C@H]4CC[C@]5(C)[C@@H](C6=CC(=O)OC6)CC[C@]5(O)[C@@H]4CC[C@]3(O)C2)C[C@H](O)[C@@H]1O [Helveticoside] | 150 | 0.2 | 150 | 150 |
| CO[C@H]1C[C@H](O[C@H]2CC[C@@]3(C)[C@H](CC[C@@H]4[C@@H]3CC[C@]3(C)[C@@H](C5=CC(=O)OC5)[C@@H](OC(C)=O)C[C@]43O)C2)O[C@@H](C)[C@@H]1O [Oleandrin] | > 100 | > 100 | > 100 | > 100 |
| CC(=O)O[C@H]1C[C@]2(O)[C@@H]3CC[C@@H]4C[C@@H](O)CC[C@]4(C)[C@H]3CC[C@]2(C)[C@H]1C1=CC(=O)OC1 [Oleandrigenin] | > 100 | > 100 | > 100 | > 100 |
| CC(=O)[C@H]1CC[C@H]2[C@@H]3CCC4=CC(=O)CC[C@]4(C)[C@H]3CC[C@]12C [Progesterone] | > 100 | 2 | > 100 | > 100 |
| C[C@]12C[C@H](O)[C@H]3[C@@H](CCC4=CC(=O)CC[C@@]43C)[C@@H]1CC[C@@H]2C(=O)CO [Corticosterone] | > 100 | > 100 | > 100 | > 100 |
| CC(=O)O[C@H]1CC[C@]2(C=O)[C@H]3CC[C@]4(C)[C@@H](C5=CC(=O)OC5)CC[C@]4(O)[C@@H]3CC[C@]2(O)C1 [Acetylstrophanthidin] | 6 | 0.2 | 6 | 2 |
| CC(=O)OC1CCC2(C)C(CCC3C2CCC2(C)C(C4=CC(=O)OC4)C(OC(C)=O)CC32O)C1 (stereo not shown) [Gitoxigenin-3,16-diacetate] | > 100 | > 100 | > 100 | > 100 |
| C[C@@H]1O[C@@H](O[C@H]2C[C@@H](O)[C@]3(CO)[C@H]4[C@H](O)C[C@]5(C)[C@@H](C6=CC(=O)OC6)CC[C@]5(O)[C@@H]4CC[C@]3(O)C2)[C@H](O)[C@H](O)[C@H]1O [Ouabain] | 20 | 0.37 | 25 | 10 |
| C[C@]12CC[C@H](O)C[C@H]1CC[C@@H]1[C@@H]2CC[C@]2(C)[C@@H](C3=CC(=O)OC3)CC[C@]12O [Digitoxigenin] | 4 | 0.04 | 4 | 4 |
| CC(=O)O[C@H]1C[C@]2(O)[C@@H]3CC[C@@H]4C[C@@H](O[C@H]5C[C@H](O)[C@H](O[C@H]6C[C@H](O)[C@H](O[C@H]7C[C@H](O)[C@H](O)[C@@H](C)O7)[C@@H](C)O6)[C@@H](C)O5)CC[C@]4(C)[C@H]3CC[C@]2(C)[C@H]1C1=CC(=O)OC1 [16-acetylgitoxin] | > 100 | 0.5 | > 100 | > 100 |
| C[C@]12CC[C@H]3[C@@H](CC[C@]4(O)C[C@@H](O)CC[C@]34C=O)[C@@]1(O)CC[C@@H]2C1=CC(=O)OC1 [Strophanthidin] | 10 | 0.2 | 10 | 4 |
| C[C@H]1O[C@@H](O[C@H]2[C@@H](O)C[C@H](O[C@H]3[C@@H](O)C[C@H](O[C@H]4CC[C@@]5(C)[C@H](CC[C@@H]6[C@@H]5CC[C@]5(C)[C@@H](C7=CC(=O)OC7)[C@@H](O)C[C@]65O)C4)O[C@@H]3C)O[C@@H]2C)C[C@H](O)[C@@H]1O [Gitoxin] | > 100 | 1.5 | > 100 | 100 |
| C[C@]12C[C@@H](O)[C@H]3[C@@H](CC[C@]4(O)C[C@@H](O)C[C@@H](O)[C@]34CO)[C@@]1(O)CC[C@@H]2C1=CC(=O)OC1 [Ouabagenin] | 30 | 0.4 | 30 | 16 |
| C[C@H]1O[C@@H](O[C@H]2[C@@H](O)C[C@H](O[C@H]3[C@@H](O)C[C@H](O[C@H]4CC[C@@]5(C)[C@H](CC[C@@H]6[C@@H]5CC[C@]5(C)[C@@H](C7=CC(=O)OC7)CC[C@]65O)C4)O[C@@H]3C)O[C@@H]2C)C[C@H](O)[C@@H]1O [Digitoxin] | 3 | 0.02 | 3 | 3 |
| C[C@H]1O[C@@H](O[C@H]2[C@@H](O)C[C@H](O[C@H]3[C@@H](O)C[C@H](O[C@H]4CC[C@@]5(C)[C@H](CC[C@@H]6[C@@H]5C[C@@H](O)[C@]5(C)[C@@H](C7=CC(=O)OC7)CC[C@]65O)C4)O[C@@H]3C)O[C@@H]2C)C[C@H](O)[C@@H]1O [Digoxin] | > 100 | 0.006 | > 100 | > 100 |
| CO[C@@H]1[C@H](O)[C@@H](O[C@@H]2C[C@H]3CC[C@@H]4[C@H](CC[C@]5(C)[C@@H](C6=CC(=O)OC6)CC[C@]45O)[C@@]3(C)[C@H](O)C2)O[C@@H](C)[C@@H]1O [Acovenoside] | 8 | 0.2 | 8 | 5 |
| C[C@@H]1O[C@@H](O[C@H]2CC[C@]3(C=O)[C@H]4CC[C@]5(C)[C@@H](C6=CC(=O)OC6)CC[C@]5(O)[C@@H]4CC[C@]3(O)C2)[C@H](O)[C@H](O)[C@H]1O [Convallatoxin] | 3 | 0.1 | 3 | 2 |

Source: patent publication US7348412B1, “Ouabain-specific monoclonal antibodies” (priority 1999, dated 2008)
